According to patent US20230116703A1, “NOVEL ERGOLINES AND METHODS OF TREATING MOOD DISORDERS” (priority 2021, published 2023):
Like-named read-outs stand apart in the source and are kept apart here.

How the values were obtained:
5-HT2A receptor [1] = target: T1, 5-HT2A receptor (Homo sapiens, UniProt P28223); experiment: cell-based; type: cell-based; settings: for EC50: Ca^2+ flux, agonist, read-out: 5-HT2A EC50
T1 construct: host or cells: HEK293

5-HT2A receptor [2] = target: T1, 5-HT2A receptor; experiment: biochemical; type: binding; settings: 1 nM [^3H]ketanserin, HEK293 stable cell line; read-out: 5-HT2A Receptor Ki (nM) ([^3H]ketanserin)
Method in brief: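 Values reflect [^3H]ketanserin binding competition. Assay conditions were adapted from the literature.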

D2 receptor = D2 receptor (Homo sapiens, UniProt P14416); experiment: FLIPR Ca^2+ flux agonist assay at D2; type: cell-based
Sequence of D2 receptor (P14416 whole entry): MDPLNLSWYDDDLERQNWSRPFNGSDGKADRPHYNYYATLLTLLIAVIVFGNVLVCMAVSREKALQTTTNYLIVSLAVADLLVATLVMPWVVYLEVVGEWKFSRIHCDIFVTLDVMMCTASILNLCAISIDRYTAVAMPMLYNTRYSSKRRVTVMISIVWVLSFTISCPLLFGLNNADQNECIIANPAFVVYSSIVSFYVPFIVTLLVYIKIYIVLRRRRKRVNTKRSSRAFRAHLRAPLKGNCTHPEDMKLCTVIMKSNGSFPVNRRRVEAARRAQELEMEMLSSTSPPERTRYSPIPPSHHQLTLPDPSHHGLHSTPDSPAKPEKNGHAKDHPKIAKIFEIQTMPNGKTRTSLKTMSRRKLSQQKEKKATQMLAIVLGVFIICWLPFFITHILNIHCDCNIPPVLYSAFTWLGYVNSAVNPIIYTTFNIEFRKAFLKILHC
Method: (§1) Functional Assays at Adrenergic and Dopamine Receptors. Agonist activity at Alpha1A, Alpha2A, D1, and D2 receptors was determined using a FLIPR Ca^2+ flux assay at WuXi AppTec (Hong Kong) Limited according to their standard protocols. Briefly, stably transfected cells expressing the receptor of interest were grown and plated in a 384 well plate and incubated at 37° C. and 5% CO2 overnight. A solution of 250 mM probenecid in 1 mL FLIPR assay buffer was prepared fresh. This was combined with a fluorescent dye (Fluo-4 Direct™) to make a final assay concentration of 2.5 mM. […] The fluorescent dye was then added to the assay plate along with assay buffer to a final volume of 40 μL. The cell plate was incubated for 50 min at 37° C. and 5% CO2 and placed into the FLIPR Tetra along with the compound plate. 10 μL of references and compounds were then transferred from the compound plate into the cell plate and the fluorescent signal was read.

D1 receptor = D1 receptor (Homo sapiens, UniProt P21728); experiment: FLIPR Ca^2+ flux agonist assay at D1; type: cell-based
Sequence of D1 receptor (P21728 whole entry): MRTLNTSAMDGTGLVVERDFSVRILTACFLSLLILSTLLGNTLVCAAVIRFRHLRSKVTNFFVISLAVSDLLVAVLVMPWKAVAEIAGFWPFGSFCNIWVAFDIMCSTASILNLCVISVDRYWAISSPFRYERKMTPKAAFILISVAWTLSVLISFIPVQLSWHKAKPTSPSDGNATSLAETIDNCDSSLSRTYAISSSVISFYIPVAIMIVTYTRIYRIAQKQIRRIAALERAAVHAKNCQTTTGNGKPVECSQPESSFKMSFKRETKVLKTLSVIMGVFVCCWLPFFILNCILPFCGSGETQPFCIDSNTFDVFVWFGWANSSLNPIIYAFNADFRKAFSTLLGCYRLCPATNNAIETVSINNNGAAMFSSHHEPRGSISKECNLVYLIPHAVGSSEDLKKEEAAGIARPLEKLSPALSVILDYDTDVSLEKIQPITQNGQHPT
Method: as §1

5-HT1B receptor = 5-HT1B receptor (Homo sapiens, UniProt P28222); experiment: cAMP accumulation agonist assay at 5-HT1B; type: cell-based; settings: cAMP, agonist; for EC50: read-out: 5-HT1B EC50
Sequence of 5-HT1B receptor (P28222 whole entry): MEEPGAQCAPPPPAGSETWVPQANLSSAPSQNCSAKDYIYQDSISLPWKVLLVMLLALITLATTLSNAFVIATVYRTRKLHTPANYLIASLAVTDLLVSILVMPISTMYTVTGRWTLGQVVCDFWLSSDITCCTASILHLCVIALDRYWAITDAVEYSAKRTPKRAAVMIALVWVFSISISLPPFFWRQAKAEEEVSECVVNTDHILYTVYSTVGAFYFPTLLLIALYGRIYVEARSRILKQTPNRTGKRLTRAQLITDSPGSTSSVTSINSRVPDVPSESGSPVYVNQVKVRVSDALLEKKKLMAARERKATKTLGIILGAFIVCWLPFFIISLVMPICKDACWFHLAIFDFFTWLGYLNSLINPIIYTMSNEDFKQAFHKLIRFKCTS
Method in brief: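 Agonism was measured by cAMP accumulation in stably transfected cells incubated 60 min at RT. A detection reagent was then added for 60 min at RT before reading, with an 800 nM cAMP standard in blank wells.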

5-HT2A receptor [3] = target: T1, 5-HT2A receptor; experiment: PathHunter beta-arrestin recruitment assay at 5-HT2A; type: cell-based; settings: for agonist type in arrestin recruitment assay (in words): 5-HT2A beta-arrestin
Method in brief: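 Cells co-express PK-tagged 5-HT2A and beta-arrestin fused to a beta-galactosidase deletion mutant, so arrestin recruitment restores enzyme activity, read by chemiluminescence; cells were held at 37° C before testing. Agonist % activity = RLU over vehicle, relative to the maximal control ligand.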

5-HT2B receptor = target: T2, 5-HT2B receptor (Homo sapiens, UniProt P41595); experiment: cell-based; settings: Ca^2+ flux, agonist; for EC50: read-out: 5-HT2B EC50
T2 construct: host or cells: HEK293
T2 sequence (P41595 whole entry): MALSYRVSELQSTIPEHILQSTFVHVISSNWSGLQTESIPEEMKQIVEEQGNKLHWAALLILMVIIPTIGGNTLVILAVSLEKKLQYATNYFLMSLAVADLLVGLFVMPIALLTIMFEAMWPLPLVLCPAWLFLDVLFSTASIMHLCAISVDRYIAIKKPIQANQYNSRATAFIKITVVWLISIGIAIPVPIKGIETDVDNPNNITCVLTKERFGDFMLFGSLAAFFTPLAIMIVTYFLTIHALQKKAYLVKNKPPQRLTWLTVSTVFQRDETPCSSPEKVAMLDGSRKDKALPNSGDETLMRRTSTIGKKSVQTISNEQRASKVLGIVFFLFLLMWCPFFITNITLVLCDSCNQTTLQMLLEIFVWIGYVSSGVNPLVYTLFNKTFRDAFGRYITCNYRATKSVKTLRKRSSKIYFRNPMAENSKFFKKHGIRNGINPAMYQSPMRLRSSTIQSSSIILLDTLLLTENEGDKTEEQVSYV

[4] = Metabolic stability in rat liver microsomes (RLM); settings: for t1/2: RLM, 0.50 mg protein per mL; for microsomal CLint at 1 μM: both, rat, pooled rat liver microsomes, pH 7.4
[5] = Ca^2+ flux, agonist, read-out: D2 EC50
[6] = Ca^2+ flux, agonist, read-out: D1 EC50
[7] = beta-arrestin recruitment, read-out: 5-HT2A Arrestin EC50

T1 sequence (P28223 whole entry): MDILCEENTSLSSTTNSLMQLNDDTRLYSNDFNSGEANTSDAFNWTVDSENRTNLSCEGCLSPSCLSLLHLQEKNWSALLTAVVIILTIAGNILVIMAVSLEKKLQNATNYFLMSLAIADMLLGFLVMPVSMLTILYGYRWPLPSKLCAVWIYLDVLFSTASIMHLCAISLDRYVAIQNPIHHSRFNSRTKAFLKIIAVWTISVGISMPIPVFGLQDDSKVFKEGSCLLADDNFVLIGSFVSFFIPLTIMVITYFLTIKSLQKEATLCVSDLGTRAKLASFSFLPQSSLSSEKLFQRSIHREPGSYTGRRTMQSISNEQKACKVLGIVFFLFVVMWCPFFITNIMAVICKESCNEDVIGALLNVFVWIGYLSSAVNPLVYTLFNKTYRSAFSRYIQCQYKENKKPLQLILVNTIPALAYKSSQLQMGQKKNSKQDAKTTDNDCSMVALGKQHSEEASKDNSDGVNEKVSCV

SMILES | EC50 (5-HT2A receptor [1]) | Ki (5-HT2A receptor [2]) | EC50 (D2 receptor; [5]) | EC50 (D1 receptor; [6]) | EC50 (5-HT1B receptor) | agonist type in arrestin recruitment assay (in words) (5-HT2A receptor [3]) | EC50 (5-HT2A receptor [3]; [7]) | EC50 (5-HT2B receptor) | t1/2 [4] | microsomal CLint at 1 μM [4] | EC50 (D2 receptor) | EC50 (D1 receptor) | EC50 (5-HT2A receptor [3]) | selectivity for the 5-HT2A receptor over the tested adrenergic and dopamine receptors (in words) (5-HT2A receptor [1]; Ca^2+ flux functional assays) | 5-HT2B % Act @ Max Dose (5-HT2B receptor) | 5-HT1B % Act @ Max Dose (5-HT1B receptor)
CCN(CC)C(=O)[C@@H]1C=C2c3cccc4[nH]cc(c34)C[C@H]2N(Cc2ccccc2OC)C1 [Compound 10, (6aR,9R)—N,N-diethyl-7-(2-methoxybenzyl)-4,6,6a,7,8,9-hexahydroindolo[4,3-fg]quinoline-9-carboxamide] | 643 nM | 32.7 nM | 983 nM | 2780 nM | 3190 nM | partial agonists | 8.47 nM | > 10000 nM | 3.4 min | 407 µL/min/mg |  |  |  |  |  | 
CCCN1C[C@H](C(=O)NC(CC)CC)C=C2c3cccc4[nH]cc(c34)C[C@H]21 [Compound 6, (6aR,9R)—N-(pentan-3-yl)-7-propyl-4,6,6a,7,8,9-hexahydroindolo[4,3-fg]quinoline-9-carboxamide] | 11.3 nM | 1.16 nM |  |  | 201 nM | full agonists |  | 253 nM | 1.655 min | 837 µL/min/mg | 7.01 nM | 18.1 nM | 1.91 nM |  |  | 
CCCN1C[C@H](C(=O)N[C@H](C)CC)C=C2c3cccc4[nH]cc(c34)C[C@H]21 [Compound 3, (6aR,9R)—N—((R)-sec-butyl)-7-propyl-4,6,6a,7,8,9-hexahydroindolo[4,3-fg]quinoline-9-carboxamide] | 1.57 nM | 1.36 nM |  |  | 68.8 nM | full agonists |  | 62 nM | 4.4 min | 318 µL/min/mg | 27.2 nM | 47.9 nM | < 0.509 nM | exceptional selectivity |  | 
CCN(CC)C(=O)[C@@H]1C=C2c3cccc4[nH]cc(c34)C[C@H]2N(CCc2ccccc2OC)C1 [Compound 11, (6aR,9R)—N,N-diethyl-7-(2-methoxyphenethyl)-4,6,6a,7,8,9-hexahydroindolo[4,3-fg]quinoline-9-carboxamide] | 216 nM | 0.69 nM | 854 nM | 1590 nM | 448 nM | partial agonists | 1.27 nM | > 10000 nM | 1.159 min | 1200 µL/min/mg |  |  |  |  | 2.5% | 
CCN(CC)C(=O)[C@@H]1C=C2c3cccc4[nH]cc(c34)C[C@H]2N(CCCF)C1 [Compound 2, (6aR,9R)—N,N-diethyl-7-(3-fluoropropyl)-4,6,6a,7,8,9-hexahydroindolo[4,3-fg]quinoline-9-carboxamide] | 11.1 nM | 2.79 nM |  |  | 193 nM | full agonists |  | 202 nM | 11.972 min | 116 µL/min/mg | 27.7 nM | 86.4 nM | 2.27 nM |  |  | 
CCCN1C[C@H](C(=O)N(CC)CC)C=C2c3cccc4[nH]cc(c34)C[C@H]21 [Compound 1, (6aR,9R)—N,N-diethyl-7-propyl-4,6,6a,7,8,9-hexahydroindolo[4,3-fg]quinoline-9-carboxamide] | 18.5 nM | 1.06 nM |  |  | 3.82 nM | full agonists |  | 104 nM | 16.2 min | 85.4 µL/min/mg | 2.17 nM | 4.64 nM | 2.01 nM |  |  | 
CCCN1C[C@H](C(=O)N2[C@@H](C)C[C@@H]2C)C=C2c3cccc4[nH]cc(c34)C[C@H]21 [Compound 4, ((2S,4S)-2,4-dimethylazetidin-1-yl)((6aR,9R)-7-propyl-4,6,6a,7,8,9-hexahydroindolo[4,3-fg]quinolin-9-yl)methanone] | 21.3 nM | 3.07 nM |  |  | 97.6 nM | full agonists |  | 511 nM | 12.8 min | 108 µL/min/mg | 21 nM | 81.8 nM | 1.44 nM |  |  | 96%
